Values joined by “and” are separate entries in the source; they are usually repeats but may differ in a detail not shown here. Identical values can stand only once.
Key:
[1] = FRAP (ferric reducing antioxidant power) assay; details: 37 °C, 60 min
Protocol: The resulting Fe^2+ forms a colored complex with the FRAP chromogenic probe, which can be quantitatively measured. The reaction mixture was prepared by combining FRAP assay buffer, FRAP probe, and FeCl3 solution as per the manufacturer's protocol. […] Absorbance was measured at 594 nm using a microplate reader after incubation at 37 °C for 60 minutes. Antioxidant activity was determined by comparing the absorbance of the samples to a standard curve generated using known concentrations of the ferrous standard provided in the kit.

COX-2 = target: T1, COX-2 (Homo sapiens, UniProt P35354); experiment: COX-2 inhibitor screening (fluorometric); assay type: biochemical
T1 construct: purchased BioVision K547-100
T1 sequence (P35354 18-604): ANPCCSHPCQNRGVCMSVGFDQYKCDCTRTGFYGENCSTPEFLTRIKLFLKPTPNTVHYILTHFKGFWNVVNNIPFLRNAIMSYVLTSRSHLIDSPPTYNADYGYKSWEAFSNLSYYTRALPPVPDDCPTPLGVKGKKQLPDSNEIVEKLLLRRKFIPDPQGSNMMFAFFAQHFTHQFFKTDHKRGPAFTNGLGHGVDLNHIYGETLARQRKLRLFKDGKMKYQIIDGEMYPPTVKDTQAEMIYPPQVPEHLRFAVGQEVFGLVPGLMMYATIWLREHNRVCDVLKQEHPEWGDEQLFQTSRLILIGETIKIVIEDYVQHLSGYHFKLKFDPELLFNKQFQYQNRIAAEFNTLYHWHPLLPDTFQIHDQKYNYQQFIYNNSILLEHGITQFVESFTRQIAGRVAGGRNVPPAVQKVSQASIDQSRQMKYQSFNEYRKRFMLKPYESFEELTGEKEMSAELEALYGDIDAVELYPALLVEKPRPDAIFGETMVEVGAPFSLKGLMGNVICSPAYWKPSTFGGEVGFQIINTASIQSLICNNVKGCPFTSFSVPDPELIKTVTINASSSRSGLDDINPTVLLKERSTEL
Protocol: COX-1 and COX-2 enzymes were reconstituted in sterile water (110 μL) and kept on ice until use. Arachidonic acid was activated by mixing 5 μL with 5 μL of NaOH, followed by a 10-fold dilution with water and vortexing. A reaction mixture (80 μL per well) was prepared by combining 76 μL of assay buffer, 1 μL of COX probe, 2 μL of 200-fold diluted COX cofactor, and 1 μL of COX-1 or COX-2 enzyme. This mix was added to each well, followed by 10 μL of the prepared arachidonic acid/NaOH solution to initiate the reaction. Fluorescence was recorded at 25 °C using a microplate reader. The percent inhibition was determined by comparing the fluorescence increase in treated wells relative to the enzyme control. IC50 values were calculated from the concentration–response curves using GraphPad Prism.

[2] = test system: Ehrlich ascites carcinoma (EAC) cells; experiment: EAC model: viable EAC cell count and ascitic tumor volume; details: for total viable EAC cell count: 10 days
Protocol: To evaluate tumor burden in the experimental groups, ascitic fluid was collected from the peritoneal cavity using a sterile, graduated syringe. The volume of ascitic fluid was recorded for each animal. The collected fluid was then diluted with heparinized saline for viable cell counting. Cell viability and density were determined using the trypan blue exclusion method. A 0.4% (w/v) trypan blue solution was prepared by dissolving 0.4 g of dye in 100 mL of sterile distilled water and filtering it through a 0.22 μm membrane filter. Prior to counting, 10 μL of the ascitic cell suspension was mixed with an equal volume of trypan blue and incubated at room temperature for 2 minutes. Cells were loaded onto a hemocytometer (Thoma type, Germany) and examined under a light microscope at 40× magnification. Non-viable cells stained blue, whereas viable cells remained unstained. All measurements were performed in triplicate, and the results are expressed as mean ± SD.[93]
On day 1, all groups were injected i.p. with 2.5 × 10^6 viable EAC cells in 200 μL of sterile saline. Group 1 (EAC control) received EAC cells only and no further treatment. […] The compound was administered i.p. every other day (i.e., on days 2, 4, 6, 8, and 10), for a total of five doses over a 10 day treatment period. At the end of the experiment (day 11), ascitic fluid was collected from the peritoneal cavity of each animal. The number and viability of EAC cells were assessed using the trypan blue exclusion assay. Each experiment was performed in triplicate and independently replicated on at least three separate occasions. The results were presented as mean ± SD. Statistical comparisons between groups were conducted using GraphPad Prism, with p < 0.05 considered significant.[95]
On day 11, following the final treatment, ascitic fluid was collected from the peritoneal cavity using heparinized syringes for EAC cell viability and count analysis.

α-tubulin = experiment: Western blot of α-tubulin in MCF-7 cells; assay type: cell-based, human; details: MCF-7, 7.653 μM (IC50)
Protocol: Cells were lysed in RIPA buffer (Thermo Scientific, Cat. #89900) containing protease and phosphatase inhibitors, and lysates were centrifuged at 12 000 × g for 15 min at 4 °C. Protein concentrations were determined using the BCA assay (Thermo Scientific, Cat. #23225), and equal amounts (20–50 μg) were mixed with 2× Laemmli sample buffer (Bio-Rad, Cat. #1610737) and denatured at 95 °C for 5 min. Proteins were separated on SDS-PAGE gels (8–10% for α-tubulin, 12% for β-actin; Bio-Rad TGX™, Cat. #456-9033) and transferred to PVDF membranes (Immobilon-P, Millipore, Cat. #IPVH00010) using a wet transfer system (100 V, 1 h, 4 °C). Membranes were blocked with 5% non-fat milk in TBST for 1 h at room temperature and incubated overnight at 4 °C with anti-α-tubulin (1 : 1000, Cell Signaling Technology, Cat. #3873) and anti-β-actin (1 : 5000, Sigma-Aldrich, Cat. #A5441) antibodies. After washing, membranes were incubated with HRP-conjugated secondary antibodies ([…], Cell Signaling Technology) for 1 h at room temperature. Protein bands were visualized using the SuperSignal™ West Pico/Femto ECL substrate (Thermo Scientific, Cat. #34095) and imaged with a Bio-Rad ChemiDoc system. Band intensities were quantified by densitometry using ImageJ software and normalized to β-actin levels.[82–84]

[3] = Acute toxicity and lethal dose determination; assay type: in vivo, Swiss albino mice; details: mice, i.p., 48 hour observation
Protocol: In the first phase, animals were injected with low doses (1, 1.5, 2, 2.5, 3, 3.5, 4, 6, 8, and 10 mg kg^−1) and observed for 24 hours. Since no mortality was observed, a second set of animals was treated with higher doses (15, 25, 50, 75, 100, and 200 mg kg^−1), with continuous monitoring for 48 hours post-injection. Control animals received sterile saline solution only. All mice were carefully observed for signs of toxicity, behavioral changes (e.g., grooming, feeding, and locomotion), and mortality. The maximum tolerated dose (LD0) was defined as the highest dose at which no mortality or significant toxic symptoms were observed, while the lethal dose (LD100) was identified as the dose at which all animals succumbed. These values were used to establish safe dosing limits for subsequent in vivo pharmacological and biochemical experiments.

[4] = Serum liver and kidney function markers (ALT, AST, creatinine, urea)
Protocol: Blood samples were collected under light ether anesthesia via the retro-orbital venous plexus and centrifuged at 3000 rpm for 10 minutes. The resulting serum was separated and stored at −20 °C for biochemical analysis.
Serum alanine aminotransferase (ALT) and aspartate aminotransferase (AST) levels were measured as indicators of liver function using commercially available assay kits (BioVenic, NY, USA, (AST) Cat. No.: IVEK3681, (ALT) Cat. No.: IVEK3446), in accordance with the manufacturer's instructions. In the ALT assay, the enzyme catalyzes the conversion of alanine to pyruvate, which is then reduced to lactate by lactate dehydrogenase, resulting in the oxidation of NADH to NAD^+. This reaction causes a decrease in absorbance at 340 nm, which is proportional to ALT activity. Similarly, the AST assay is based on the transamination of aspartate to oxaloacetate, which then reacts with NADH in the presence of malate dehydrogenase, leading to a decrease in NADH absorbance at 340 nm. For each assay, 10 μL of serum was added to the respective substrate buffer and incubated at 37 °C for 30 minutes. The change in absorbance was recorded using a microplate reader at 340 nm. Enzymatic activities were calculated and expressed in units per liter (U L^−1). All measurements were performed in triplicate, and results are presented as mean ± SD.[98,99]
Serum creatinine and urea levels were assessed as indicators of renal function using colorimetric assay kits from BioAssay Systems (DICT-500, USA), according to the manufacturers' protocols. Creatinine concentration was determined based on a colorimetric enzymatic reaction. In this assay, creatinine is enzymatically converted to creatine and then to sarcosine, which is oxidized to produce hydrogen peroxide. The resulting hydrogen peroxide reacts with a chromogenic substrate in the presence of peroxidase to generate a colored product, the intensity of which is proportional to the creatinine concentration. Briefly, 10 μL of serum was mixed with 200 μL of working reagent, incubated at 25 °C for 5 minutes, and the absorbance was recorded at 510 nm using a microplate reader. Values were quantified against a standard curve and expressed in mg dL^−1. On the other hand, urea levels were measured based on an enzymatic reaction that produces a chromophore detectable at 340 nm. Specifically, 5 μL of serum was added to 200 μL of the assay reagent and incubated at 37 °C for 10 minutes. Absorbance was measured at 340 nm, and urea concentration was calculated using a standard curve and expressed as mg dL^−1.

[5] = Hepatic oxidative stress markers (GSH, CAT, SOD, MDA)
Protocol: All animals were maintained under conventional laboratory conditions, including a controlled temperature of 22 ± 2 °C and a 12 hour light/dark photoperiod, with continuous access to standard pellet chow and water. On day 11, following the final treatment, ascitic fluid was collected from the peritoneal cavity using heparinized syringes for EAC cell viability and count analysis. Blood samples were collected under light ether anesthesia via the retro-orbital venous plexus and centrifuged at 3000 rpm for 10 minutes. The resulting serum was separated and stored at −20 °C for biochemical analysis. Additionally, liver and kidney tissues were excised from each animal for further evaluation. Each organ was divided into two parts: one portion was rinsed with ice-cold phosphate-buffered saline (PBS, pH 7.4) and stored at −20 °C for preparation of tissue homogenates used in biochemical assays. The second portion was fixed in 10% neutral buffered formalin for histopathological examination to assess tissue morphology and damage.[96,97]
Liver tissues were homogenized in an appropriate lysis buffer and centrifuged to obtain the supernatant. Samples were loaded into ELISA plates pre-coated with catalase-specific antibodies and incubated at 37 °C. After washing steps, a biotinylated detection antibody and horseradish peroxidase (HRP)-conjugated secondary antibody were sequentially added. The reaction was developed using a tetramethylbenzidine (TMB) substrate and stopped with sulfuric acid. Absorbance was measured at 450 nm using a microplate reader, and results were expressed as units per gram of tissue (U g^−1 tissue). All samples were run in triplicate, and data were reported as mean ± SD.
The assay employed a double-antibody sandwich ELISA technique, where wells are pre-coated with MDA-specific monoclonal antibodies. Liver tissue homogenate samples were added to the wells and incubated to allow specific antigen–antibody binding. After washing, a biotin-labeled polyclonal detection antibody was added, followed by an avidin–HRP conjugate. The enzymatic reaction was developed using a TMB substrate, yielding a colorimetric change proportional to the MDA concentration. The reaction was stopped with acid, and absorbance was measured at 450 nm using a microplate reader. Results were expressed as nanomole per gram of tissue (nmol g^−1 tissue). All measurements were performed in triplicate, and results are presented as mean ± SD.
The assay employs a sandwich ELISA technique in which GSH in the samples binds to monoclonal antibodies pre-coated on microplate wells. Following this, an HRP-conjugated detection antibody was added, and the plate was incubated at 37 °C for 1 hour. After several washing steps to remove unbound reagents, a TMB substrate solution was added, allowing the enzymatic colorimetric reaction to develop. The reaction was stopped with an acidic solution, and absorbance was measured at 450 nm using a microplate reader. The resulting color intensity was directly proportional to the GSH concentration in the sample, and results were expressed as picogram per gram of tissue (pg g^−1 tissue). All samples were assayed in triplicate, and results are reported as mean ± SD.
The assay employed a sandwich ELISA format, in which SOD present in the tissue homogenates binds to a specific monoclonal antibody pre-coated on microplate wells. After sample incubation at 37 °C for 60 minutes, an HRP-conjugated secondary antibody was added. Following thorough washing, the enzymatic reaction was initiated with a TMB substrate and stopped with an acidic solution, resulting in a measurable color change. Absorbance was recorded at 450 nm using a microplate reader, and results were expressed as units per gram of tissue (U g^−1 tissue). All samples were run in triplicate, and data were reported as mean ± SD.

CCOC(=O)/C(C#N)=C/c1ccc(Oc2c(C)c3cc(Br)c(O)c(Br)c3[nH]c2=O)cc1 [Compound 7, ethyl (E)-2-cyano-3-(4-((6,8-dibromo-7-hydroxy-4-methyl-2-oxo-1,2-dihydroquinolin-3-yl)oxy)phenyl)acrylate]
IC50 [1]: 145 µM
selectivity index (SI), COX-1/COX-2 (COX-2): 5.93
IC50 (COX-2; read-out: IC50 toward COX-2): 1.26 µM and 1.3 µM
reduction in viable EAC cells ([2]; 2.5 mg kg^−1, vs EAC control): 53.27%
total viable EAC cell count ([2]; 2.5 mg kg^−1 i.p. every two days, EAC control 199.33 ± 4.15): 93.15 ± 7.19 × 10^6 cells
reduction in viable EAC cells ([2]; 5 mg kg^−1, vs EAC control): 65.41%
total viable EAC cell count ([2]; 5 mg kg^−1 i.p. every two days): 68.95 ± 2.00 × 10^6 cells
reduction in viable EAC cells ([2]; 7.5 mg kg^−1, vs EAC control): 72.36%
total viable EAC cell count ([2]; 7.5 mg kg^−1 i.p. every two days): 55.10 ± 2.15 × 10^6 cells
reduction in viable EAC cells ([2]; 10 mg kg^−1, vs EAC control): 85.92%
reduction of ascitic tumor volume ([2]; 10 mg kg^−1, vs untreated EAC group): 45.25%
average ascitic tumor volume ([2]; 10 mg kg^−1, untreated EAC group 5.68 ± 0.15 mL): 3.11 ± 0.45 mL
total viable EAC cell count ([2]; 10 mg kg^−1 i.p. every two days): 28.06 ± 1.69 × 10^6 cells
reduction in viable EAC cells ([2]; 15 mg kg^−1, vs EAC control): 85.96%
total viable EAC cell count ([2]; 15 mg kg^−1 i.p. every two days): 27.98 ± 0.39 × 10^6 cells
reduction of α-tubulin protein expression vs untreated control (α-tubulin): 2.7 fold
MTD at 48 h ([3]; Swiss albino, mouse, in vivo, ip, read-out: maximum tolerated dose (LD0)): 100 mg/kg
approximate lethal dose (LD100) [3]: ~200 mg/kg
serum creatinine ([4]; EAC + compound 7 (10 mg kg^−1 i.p.), EAC control 1.7 ± 0.04): 0.6 ± 0.02 mg/dL
serum urea ([4]; EAC + compound 7 (10 mg kg^−1 i.p.), EAC control 94 ± 1.78): 44.83 ± 0.7 mg/dL
serum ALT ([4]; EAC + compound 7 (10 mg kg^−1 i.p.), EAC control 140.66 ± 3.45): 49.83 ± 1.16 U L^−1
serum AST ([4]; EAC + compound 7 (10 mg kg^−1 i.p.), EAC control 168.33 ± 3.7): 57.5 ± 1.56 U L^−1
serum ALT ([4]; compound 7-control group, no EAC (10 mg kg^−1 i.p.), untreated 27.16 ± 0.94): 22.83 ± 0.6 U L^−1
serum creatinine ([4]; compound 7-control group, no EAC, untreated 0.5 ± 0.02): 0.5 ± 0.03 mg/dL
serum urea ([4]; compound 7-control group, no EAC, untreated 24.16 ± 1.07): 21.83 ± 0.6 mg/dL
serum AST ([4]; compound 7-control group, no EAC, untreated 41.66 ± 1.3): 37.83 ± 0.94 U L^−1
hepatic GSH ([5]; EAC + compound 7 (10 mg kg^−1 i.p.), EAC control 12.50 ± 0.55): 34.76 ± 1.71 pg g^−1 tissue
hepatic SOD ([5]; EAC + compound 7, EAC control 9.85 ± 0.53): 27.04 ± 0.70 U g^−1 tissue
hepatic CAT ([5]; EAC + compound 7, EAC control 11.71 ±1.42): 23.12 ± 1.09 U g^−1 tissue
hepatic MDA ([5]; EAC + compound 7, EAC control 53.57 ± 9.6): 17.04 ± 0.64 nmol g^−1 tissue
hepatic MDA ([5]; compound 7 control group, no EAC): 10.77 ± 0.70 nmol g^−1 tissue
hepatic GSH ([5]; compound 7 control group, no EAC, untreated 61.4 ± 2.99): 72.73 ± 1.37 pg g^−1 tissue
hepatic CAT ([5]; compound 7 control group, no EAC, untreated 65.23 ± 1.97): 60.88 ± 2.66 U g^−1 tissue
hepatic SOD ([5]; compound 7 control group, no EAC, untreated 77.56 ± 4.02): 77.05 ± 1.84 U g^−1 tissue
